Measurements from patent US12433872B2, “Treatment of Acanthamoeba or Balamuthia trophozoites and/or cysts” (GEORGIA STATE UNIVERSITY RESEARCH FOUNDATION, INC., priority 2018, dated 2025).
pIC50: −log10 of the molar value. Like-named read-outs stand apart in the source and are kept apart here.

Experiments:
Format in all cases: cell-based
[1] = tested on: Acanthamoeba castellanii trophozoites; assay: Activity against Acanthamoeba castellanii trophozoites
Experimental: Two Acanthamoeba species (Acanthamoeba castellanii—ATCC50370 and Acanthamoeba culbertsoni—ATCC30171) were bought from the American Type Culture Collection (ATCC) and one species (Acanthamoeba healyi) was donated from the Centers for Disease Control and Prevention (CDC) for our experimentations. Trophozoites were thawed and grown in 10 mL of a nutrient rich Peptose-Glucose (PG) media. The PG media composition is 83.26 mM Glucose (15 g/L), Protease Peptone (15 g/L, yeast extract is manufactured under controlled conditions to retain its vitamin content and other nutritive values such as free amino acids, no other composition information given), 2.2 mM KH2PO4 (300 mg/L), 2.97 μM Thiamine (1 mg/L), 99.86 μM L-methionine (14.9 mg/L), 4.6 μM Vitamin B12 (83.3 μl of 0.1 mg/mL stock/L) and 68 μM Biotin (83.3 μl of 0.2 mg/mL stock/L). […] One mL/L of the salt solution was added to the media stock prior to autoclaving. All reagents were purchased from Sigma Aldrich except the Glucose which was purchased from Alfa Aesar. The cell pellet was resuspended in a final volume of 10 mL of PG media, cultured in 75 cm^2 coming tissue culture flasks and incubated at 27° C. PG was supplemented with 125 μg of penicillin/streptomycin. Sub-culturing occurred twice per week to allow the continued growth and development of the Acanthamoeba trophozoites. […]

A549 cells = assay: Toxicity to human A549 cells
[2] = tested on: Acanthamoeba castellanii (ATCC50370) cysts; assay: Encystation drug susceptibility / excystation viability assay, 30 day recovery, A. castellanii cysts; conditions: ATCC50370, 720 h, read-out: A. castellanii 30 day MCC
Experimental: (§1) The trophozoites of Acanthamoeba were harvested by mechanical detachment and collected via centrifugation at 4000 rpm at 4° C. for 5 minutes. The trophozoites were washed in 10 mL of Neff's Encystment Media (NEM). NEM composition is 20 mM Tris-HCL [pH 8.8] (2.43 g/L), 100 mM KCL (7.46 g/L), 8 mM MgSO4 (962.96 mg/L), 0.4 mM CaCL2 58.81 mg/L) and 1 mM NaHCO3 (84.01 mg/L) (Neff et al. 1964). All reagents were bought from Sigma Aldrich. Centrifugation of the trophozoites was repeated to ensure any residual growth medium was removed. The pellet was resuspended in a final volume of 15 mL of NEM, cultured in 75 cm^2 corning tissue culture flasks and incubated vertically in a thermal shaker, shaken at 100 rpm at 37° C. for 72 hours to produce fully matured cysts. NEM was supplemented with 250 μg of penicillin/streptomycin. Fresh cysts were produced each time for any experimentation.
(§2) At 72 hours the cysts were harvested using a cell scraper and collected via centrifugation at 4000 rpm at 25° C. for 10 minutes. The cells were washed twice in 10 mL of HyClone™ water, Molecular Biology Grade, and centrifugation was repeated to ensure the removal of any residual NEM. The cell suspension was washed with 0.5% sodium dodecyl sulphate (SDS) to remove any remaining trophozoites and immature cysts. The fully mature cysts were further washed twice with 10 mL of HyClone™ water and 1% NEM, centrifugation was repeated to remove any residue of SDS. The concentration of mature cysts was determined using a haemocytometer and adjusted to 1×10^4 cysts/mL in NEM.
(§3) All test compounds were prepared as 5 mg/mL stock solutions in dimethylsulfoxide (DMSO). All compounds were diluted in NEM, serially diluted in 2-fold dilutions 6 or 11 times, yielding a screening concentration range of 1.56 μg/mL to 50 μg/mL or 48 ng/mL to 50 μg/mL with a final highest screening concentration of 1% DMSO.
(§4) Based on this, a strain specific test period and also a 30 day non-specific recovery time were considered. For the 30 day recovery period, the media was changed 5 times to ensure the contents of wells dis not evaporate and have an effect within the results of the assay.
(§5) 90 μL of 1×10^4 Cysts/ml and 10 μL of experimental compounds from the screening plates were produced according to the protocols above and combined into a Corning clear 96 well treated tissue culture plate. Control wells include cysts in non-drug treated, 1% DMSO, NEM (to be used for negative growth control), NEM Blank, PG blank and cysts in non-drug treated, 1% DMSO, PG (to excyst cells and to be used for positive growth control). The total well volume for all wells was 100 μL. The drug exposed plates were screened at 27° C. for 6 or 24 hours only. At the exposure time point the plates were centrifuged at 4000 rpm at 25° C. for 10 minutes and washed twice with phosphate-buffered saline (PBS) to remove any residual experimental compound.
(§6) Once the plate(s) underwent the Encystation drug susceptibility process, all wells except the negative growth control and NEM blank wells received PG growth medium. All plates were left to recover at 27° C. for the strain specific time period of 5, 9 or 11 days depending on the species of Acanthamoeba. At each of the strain specific time points the plates were removed from incubation and microscopically analysed (qualitatively) for the excystation process for the emergence of excysted viable trophozoites or residual cysts. The presence of excysted trophozoites indicated viable amoebae (non-cystistatic or cysticidal—no effect) and the absence of excystation was considered as cystistatic/cysticidal effects.

[3] = tested on: Acanthamoeba healyi cysts; assay: Encystation drug susceptibility / excystation viability assay, 30 day recovery, A. healyi cysts; conditions: 720 h, read-out: A. healyi 30 day MCC
Experimental: as §1, §2, §3, §4, §5, §6

[4] = tested on: Acanthamoeba culbertsoni (ATCC30171) cysts; assay: Encystation drug susceptibility / excystation viability assay, 30 day recovery, A. culbertsoni cysts; conditions: ATCC30171, 720 h, read-out: A. culbertsoni 30 day MCC
Experimental: as §1, §2, §3, §4, §5, §6

[5] = tested on: Balamuthia mandrillaris trophozoites; assay: Activity against Balamuthia mandrillaris trophozoites; conditions: for pIC50: Balamuthia mandrillaris
Experimental: Balamuthia mandrillaris trophozoites were thawed and grown in 10 ml of BM-3 medium. […] After autoclaving, complete BM-3 media was produced by the addition of 10% fetal bovine serum and 125 μg of penicillin/streptomycin antibiotics. The table describes all of the compounds and the activity against Balamuthia trophozoites compared to the activity for select Acanthamoeba trophozoites shown in Table 5.

[6] = read-out: A. cactellanii Trophozoite IC50
[7] = read-out: Acanthamoeba castellanii IC50
[8] = Homo sapiens, A549, read-out: A549 cell IC50
[9] = read-out: Balamuthia mandrillaris IC50
[10] = trophozoites, n = 2, Table 6, read-out: Acanthamoeba castellanii IC50
[11] = human A549 cells, read-out: A549 cell IC50
[12] = minimum cysticidal concentration, no recovery up to 30 days
[13] = trophozoites, n = 2, read-out: Balamuthia mandrillaris IC50

| SMILES | pIC50 [1, 6] | pIC50 [1, 7] | pIC50 (A549 cells; [8]) | MCC [2] [µM] | MCC [3] [µM] | MCC [4] [µM] | pIC50 [5, 9] | pIC50 [1, 10] | pIC50 (A549 cells; [11]) | MCC [2, 12] [µM] | MCC [3, 12] [µM] | MCC [4, 12] [µM] | pIC50 [5, 13] | times more potent than pentamide as reported in Schuster et al. ([5]; B. mandrillaris, versus pentamidine 29.38 μM) | pIC50 ([5]; read-out: IC50 against B. mandrillaris) |
| --- | --- | --- | --- | --- | --- | --- | --- | --- | --- | --- | --- | --- | --- | --- | --- |
| CC(C)NC(=N)c1ccc2nc(-c3ccc(Oc4ccc(-c5nc6ccc(C(=N)NC(C)C)cc6[nH]5)c(F)c4F)cc3Br)[nH]c2c1 [Compound H, 2-(2-Bromo-4-(2,3-difluoro-4-(6-(N-isopropylcarbamimidoyl)-1H-benzo[d]imidazol-2-yl)phenoxy)phenyl)-N-isopropyl-1H-benzo[d]imidazole-6-carboximidamide] | 6.57 | 6.57 | 5.51 | 1.88 | 1.88 | 1.88 | 7.00 | – | – | – | – | – | – | – | – |
| CC(C)NC(=N)c1ccc2nc(-c3ccc(Oc4ccc(-c5nc6ccc(C(=N)NC(C)C)cc6[nH]5)c(Br)c4)cc3)[nH]c2c1 [M, 2-(2-Bromo-4-(4-(6-(N-isopropylcarbamimidoyl)-1H-benzo[d]imidazol-2-yl)phenoxy)phenyl)-N-isopropyl-1H-benzo[d]imidazole-6-carboximidamide] | – | – | – | – | – | – | – | 6.41 | 5.41 | 2.85 | 3.8 | 5.7 | 7.10 | – | – |
| CC(C)NC(=N)c1ccc2nc(-c3ccc(Oc4ccc(-c5nc6ccc(C(=N)NC(C)C)cc6[nH]5)c(Br)c4)cc3Br)[nH]c2c1 [Compound D, 2,2′-(Oxybis(2-bromo-4,1-phenylene))bis(N-isopropyl-1H-benzo[d]imidazole-6-carboximidamide)] | 6.51 | 6.51 | 5.38 | 3.4 | 3.4 | 1.27 | 7.00 | – | – | – | – | – | – | – | – |
| COc1cc(Oc2ccc(-c3nc4ccc(C(=N)NC(C)C)cc4[nH]3)cc2F)ccc1-c1nc2ccc(C(=N)NC(C)C)cc2[nH]1 [K, 2-(3-Fluoro-4-(4-(6-(N-isopropylcarbamimidoyl)-1H-benzo[d]imidazol-2-yl)-3-methoxyphenoxy)phenyl)-N-isopropyl-1H-benzo[d]imidazole-6-carboximidamide] | – | – | – | – | – | – | – | 5.96 | 5.39 | 9.65 | 7.72 | 7.89 | 6.85 | – | – |
| CC(C)NC(=N)c1ccc2nc(-c3ccc(Oc4ccc(-c5nc6ccc(C(=N)NC(C)C)cc6[nH]5)c(Br)c4)cc3F)[nH]c2c1 [Compound E, 2-(2-Bromo-4-(3-fluoro-4-(6-(N-isopropylcarbamimidoyl)-1H-benzo[d]imidazol-2-yl)phenoxy)phenyl)-N-isopropyl-1H-benzo[d]imidazole-6-carboximidamide] | 6.66 | 6.11 | 5.42 | 2.75 | 1.83 | 1.83 | 6.96 | – | – | – | – | – | – | – | – |
| CC(C)NC(=N)c1ccc2nc(-c3cc(F)c(Oc4ccc(-c5nc6ccc(C(=N)NC(C)C)cc6[nH]5)c(Br)c4)c(F)c3)[nH]c2c1 [Compound F, 2-(2-Bromo-4-(2,6-difluoro-4-(6-(N-isopropylcarbamimidoyl)-1H-benzo[d]imidazol-2-yl)phenoxy)phenyl)-N-isopropyl-1H-benzo[d]imidazole-6-carboximidamide] | 6.23 | 6.23 | 4.86 | 5.29 | 3.52 | 5.29 | 6.23 | – | – | – | – | – | – | – | – |
| COc1cc(Oc2ccc(-c3nc4ccc(C(=N)NC(C)C)cc4[nH]3)c(Cl)c2)ccc1-c1nc2ccc(C(=N)NC(C)C)cc2[nH]1 [Compound S] | – | – | – | – | – | – | – | 5.55 | 5.53 | 2.81 | 1.87 | 0.93 | 7.22 | – | – |
| COc1cc(Oc2c(F)cc(-c3nc4ccc(C(=N)NC(C)C)cc4[nH]3)cc2F)ccc1-c1nc2ccc(C(=N)NC(C)C)cc2[nH]1 [Compound A, 2-(3,5-Difluoro-4-(4-(6-(N-isopropylcarbamimidoyl)-1H-benzo[d]imidazol-2-yl)-3-methoxyphenoxy)phenyl)-N-isopropyl-1H-benzo[d]imidazole-6-carboximidamide] | 5.92 | 5.92 | 4.49 | 47.4 | 7.9 | 7.9 | 6.22 | – | – | – | – | – | – | 48.9 | 6.22 |
| COc1cc(Oc2ccc(-c3nc4ccc(C(=N)NC(C)C)cc4[nH]3)c(Br)c2)ccc1-c1nc2ccc(C(=N)NC(C)C)cc2[nH]1 [N, 2-(2-Bromo-4-(4-(6-(N-isopropylcarbamimidoyl)-1H-benzo[d]imidazol-2-yl)-3-methoxyphenoxy)phenyl)-N-isopropyl-1H-benzo[d]imidazole-6-carboximidamide] | – | – | – | – | – | – | – | 6.25 | 5.41 | 9.2 | 5.52 | 3.68 | 6.92 | – | – |
| CC(C)NC(=N)c1ccc2nc(-c3cc(F)c(Oc4ccc(-c5nc6ccc(C(=N)NC(C)C)cc6[nH]5)c(Cl)c4)c(F)c3)[nH]c2c1 [Compound B, 2-(2-Chloro-4-(2,6-difluoro-4-(6-(N-isopropylcarbamimidoyl)-1H-benzo[d]imidazol-2-yl)phenoxy)phenyl)-N-isopropyl-1H-benzo[d]imidazole-6-carboximidamide] | 6.27 | 6.27 | 4.77 | 9.6 | 3.84 | 2.88 | 6.40 | – | – | – | – | – | – | – | – |
| CC(C)NC(=N)c1ccc2nc(-c3ccc(Oc4ccc(-c5nc6ccc(C(=N)NC(C)C)cc6[nH]5)cc4Br)cc3)[nH]c2c1 [O, 2-(3-Bromo-4-(4-(6-(N-isopropylcarbamimidoyl)-1H-benzo[d]imidazol-2-yl)phenoxy)phenyl)-N-isopropyl-1H-benzo[d]imidazole-6-carboximidamide] | – | – | – | – | – | – | – | 6.17 | 5.43 | 11.4 | 11.4 | 11.4 | 6.89 | – | – |
